Source: publication PMC4216217 (Journal of Medicinal Chemistry, 2014)
Like-named read-outs stand apart in the source and are kept apart here. Blank lines part the entries; values can stand above or below the molecule they belong to.

Columns and labels:
rat D2-like receptors = rat D2-like receptors (Rattus norvegicus, UniProt P61169); assay: biochemical; type: binding
[1] = target: rat D3 dopamine receptors (Rattus norvegicus, UniProt P19020); assay: biochemical; type: binding
human D3 receptor = human D3 receptor (Homo sapiens, UniProt P35462); assay: cell-based; type: cell-based
Sequence of human D3 receptor (P35462 whole entry): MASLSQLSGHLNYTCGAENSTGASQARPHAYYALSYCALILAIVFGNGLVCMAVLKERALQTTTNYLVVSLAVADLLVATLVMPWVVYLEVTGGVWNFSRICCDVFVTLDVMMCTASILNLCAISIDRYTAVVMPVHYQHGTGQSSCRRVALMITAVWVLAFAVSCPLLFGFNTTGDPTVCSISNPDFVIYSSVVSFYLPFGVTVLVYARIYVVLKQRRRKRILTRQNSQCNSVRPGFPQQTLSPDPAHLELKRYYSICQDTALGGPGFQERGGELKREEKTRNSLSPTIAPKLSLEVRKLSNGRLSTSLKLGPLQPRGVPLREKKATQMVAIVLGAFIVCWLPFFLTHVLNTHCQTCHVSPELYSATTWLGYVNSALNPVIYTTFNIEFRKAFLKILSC

Sequence of rat D2-like receptors (P61169 1-415 isoform P61169-2): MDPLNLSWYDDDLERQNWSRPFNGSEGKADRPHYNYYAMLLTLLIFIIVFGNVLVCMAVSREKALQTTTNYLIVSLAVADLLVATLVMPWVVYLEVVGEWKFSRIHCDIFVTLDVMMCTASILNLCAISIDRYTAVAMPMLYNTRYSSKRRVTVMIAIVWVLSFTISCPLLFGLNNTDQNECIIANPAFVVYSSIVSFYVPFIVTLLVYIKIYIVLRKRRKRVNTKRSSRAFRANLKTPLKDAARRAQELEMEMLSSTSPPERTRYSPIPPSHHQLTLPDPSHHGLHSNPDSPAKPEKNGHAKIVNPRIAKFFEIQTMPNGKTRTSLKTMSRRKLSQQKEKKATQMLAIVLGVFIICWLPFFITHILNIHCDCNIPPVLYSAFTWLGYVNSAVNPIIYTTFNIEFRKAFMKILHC
Sequence of rat D3 dopamine receptors (P19020 whole entry): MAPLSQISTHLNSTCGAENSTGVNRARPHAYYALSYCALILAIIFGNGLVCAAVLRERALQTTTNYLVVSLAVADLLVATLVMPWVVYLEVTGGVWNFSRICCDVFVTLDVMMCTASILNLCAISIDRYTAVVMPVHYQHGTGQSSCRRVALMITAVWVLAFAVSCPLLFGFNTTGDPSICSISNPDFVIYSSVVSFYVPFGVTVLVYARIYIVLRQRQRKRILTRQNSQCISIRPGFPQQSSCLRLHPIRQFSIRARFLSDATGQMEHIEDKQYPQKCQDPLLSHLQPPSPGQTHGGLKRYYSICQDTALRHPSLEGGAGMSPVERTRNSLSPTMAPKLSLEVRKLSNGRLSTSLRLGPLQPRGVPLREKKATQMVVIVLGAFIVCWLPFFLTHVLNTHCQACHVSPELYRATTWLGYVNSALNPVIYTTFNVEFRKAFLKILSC

Ki (rat D2-like receptors): > 100000 nM
SMILES: CCCN(CC[C@]1(O)C[C@@H](NC(=O)c2ccc3ccccc3c2)C1)C1CC1c1ccc(Cl)cc1 (relative stereo) [(±)-11, N-(cis-3-(2-((((±)-trans)-2-(4-Chlorophenyl)cyclopropyl)(propyl)-amino)ethyl)-3-hydroxycyclobutyl)-2-naphthamide]
binding to the rat D2 receptor (rat D2-like receptors): neither compound showing measurable binding

Ki (rat D2-like receptors): 503 ± 63 nM
SMILES: CCCN(CC[C@]1(O)C[C@@H](NC(=O)c2ccc3ccccc3c2)C1)[C@H]1C[C@@H]1c1ccccc1Cl (relative stereo) [(±)-12, N-(cis-3-(2-((((±)-trans)-2-(2-Chlorophenyl)cyclopropyl)(propyl)-amino)ethyl)-3-hydroxycyclobutyl)-2-naphthamide]

SMILES: CCCN(CC[C@]1(O)C[C@@H](NC(=O)c2ccc3ccccc3c2)C1)[C@H]1C[C@@H]1c1cccc(Cl)c1 (relative stereo) [(±)-13, N-(cis-3-(2-((((±)-trans)-2-(3-Chlorophenyl)cyclopropyl)(propyl)-amino)ethyl)-3-hydroxycyclobutyl)-2-naphthamide]
selectivity D3/D2 [1]: >29000 | selectivity for rat D3 receptor over rat D2 receptor [1]: > 10000 | Ki ([1]; Ki ± SEM, D3): 26 nM | binding to the rat D2 receptor (rat D2-like receptors; at 100 μM): neither compound showing measurable binding

SMILES: CCCN[C@@H]1C[C@H]1c1ccccc1 [(1R,2S)-9, (1R,2S)-2-Phenyl-N-propylcyclopropanamine]
selectivity for rat D3 receptor over rat D2 receptor [1]: approximately 80 fold

selectivity for rat D3 receptor over rat D2 receptor [1]: 20–30 fold
SMILES: CCCN(CC[C@]1(O)C[C@@H](NC(=O)c2ccc3ccccc3c2)C1)[C@@H]1C[C@H]1c1ccccc1 [(1R,2S)-10, N-(cis-3-Hydroxy-3-(2-(((1R,2S)-2-phenylcyclopropyl)(propyl)amino)-ethyl)cyclobutyl)-2-naphthamide]

SMILES: CCCN(CC[C@]1(O)C[C@@H](NC(=O)c2ccc3ccccc3c2)C1)[C@@H]1C[C@H]1c1ccc(Cl)cc1 [(1R,2S)-11, N-(cis-3-(2-(((1R,2S)-2-(4-Chlorophenyl)cyclopropyl)(propyl)-amino)ethyl)-3-hydroxycyclobutyl)-2-naphthamide]
EC50 (human D3 receptor): > 100000 nM | slope of the Schild plot (human D3 receptor; D3 activity stimulated by pramipexole): −0.83 | EC50 (human D3 receptor; read-out: agonist activity ED50, β-arrestin binding to human D3, U2OS): > 100000 nM | agonist activity (human D3 receptor; β-arrestin binding to human D3, in words): no agonist activity | binding to the rat D2 receptor (rat D2-like receptors): no appreciable binding

SMILES: CCCN[C@H]1C[C@@H]1c1ccccc1 [(1S,2R)-9, (1S,2R)-2-Phenyl-N-propylcyclopropanamine]
selectivity for rat D3 receptor over rat D2 receptor [1]: approximately 80 fold

selectivity for rat D3 receptor over rat D2 receptor [1]: 20–30 fold
SMILES: CCCN(CC[C@]1(O)C[C@@H](NC(=O)c2ccc3ccccc3c2)C1)[C@H]1C[C@@H]1c1ccccc1 [(1S,2R)-10, N-(cis-3-Hydroxy-3-(2-(((1S,2R)-2-phenylcyclopropyl)(propyl)-amino)ethyl)cyclobutyl)-2-naphthamide]
